Measurements: US20150133426A1, “SUBSTITUTED PYRROLOPYRIMIDINES” (BAYER PHARMA AKTIENGESELLSCHAFT, priority 2012, published 2015)
pIC50: −log10 of the molar value.

Target: T1, human full-length MKNK1 (Homo sapiens, UniProt Q9BUB5, T385D)
T1 construct: purchased Carna Biosciences 02-145; host or cells: insect cells, baculovirus expression system
Assay: MKNK1 kinase high ATP assay (TR-FRET)
Assay type: biochemical
Conditions: high ATP (2 mM), 15 min preincubation with enzyme, GST-MKNK1 (T344D)
Experimental: MKNK1-inhibitory activity at high ATP of compounds of the present invention after their preincubation with MKNK1 was quantified employing the TR-FRET-based MKNK1 high ATP assay as described in the following paragraphs.
A recombinant fusion protein of Glutathione-S-Transferase (GST, N-terminally) and human full-length MKNK1 (amino acids 1-424 and T344D of accession number BAA 19885.1), expressed in insect cells using baculovirus expression system and purified via glutathione sepharose affinity chromatography, was purchased from Carna Biosciences (product no 02-145) and used as enzyme. As substrate for the kinase reaction the biotinylated peptide biotin-Ahx-IKKRKLTRRKSLKG (C-terminus in amide form) was used, which can be purchased e.g. from the company Biosyntan (Berlin-Buch, Germany).
For the assay 50 nL of a 100fold concentrated solution of the test compound in DMSO was pipetted into a black low volume 384well microtiter plate (Greiner Bio-One, Frickenhausen, Germany), 2 μL of a solution of MKNK1 in aqueous assay buffer [50 mM HEPES pH 7.5, 5 mM MgCl2, 1.0 mM dithiothreitol, 0.005% (v/v) Nonidet-P40 (Sigma)] was added and the mixture was incubated for 15 min at 22° C. to allow pre-binding of the test compounds to the enzyme before the start of the kinase reaction. Then the kinase reaction was started by the addition of 3 μL of a solution of adenosine-tri-phosphate (ATP, 3.3 mM=>final conc. in the 5 μL assay volume is 2 mM) and substrate (0.1 μM=>final conc. in the 5 μL assay volume is 0.06 μM) in assay buffer and the resulting mixture was incubated for a reaction time of 30 min at 22° C. The concentration of MKNK1 was adjusted depending of the activity of the enzyme lot and was chosen appropriate to have the assay in the linear range, typical concentrations were in the range of 0.003 μg/mL. The reaction was stopped by the addition of 5 μL of a solution of TR-FRET detection reagents (5 nM streptavidine-XL665 [Cisbio Bioassays, Codolet, France] and 1 nM anti-ribosomal protein […] (pSer236)-antibody from Invitrogen [#44921G] and 1 nM LANCE EU-W1024 labeled ProteinG [Perkin-Elmer, product no. AD0071]) in an aqueous EDTA-solution (100 mM EDTA, 0.1% (w/v) bovine serum albumin in 50 mM HEPES pH 7.5).
The resulting mixture was incubated for 1 h at 22° C. to allow the formation of complex between the phosphorylated biotinylated peptide and the detection reagents. Subsequently the amount of phosphorylated substrate was evaluated by measurement of the resonance energy transfer from the Eu-chelate to the streptavidine-XL. Therefore, the fluorescence emissions at 620 nm and 665 nm after excitation at 350 nm were measured in a TR-FRET reader, e.g. a Rubystar (BMG Labtechnologies, Offenburg, Germany) or a Viewlux (Perkin-Elmer). The ratio of the emissions at 665 nm and at […] was taken as the measure for the amount of phosphorylated substrate. The data were normalised (enzyme reaction without inhibitor=0% inhibition, all other assay components but no enzyme=100% inhibition).

T1 sequence (Q9BUB5 1-424 isoform Q9BUB5-2 T344D): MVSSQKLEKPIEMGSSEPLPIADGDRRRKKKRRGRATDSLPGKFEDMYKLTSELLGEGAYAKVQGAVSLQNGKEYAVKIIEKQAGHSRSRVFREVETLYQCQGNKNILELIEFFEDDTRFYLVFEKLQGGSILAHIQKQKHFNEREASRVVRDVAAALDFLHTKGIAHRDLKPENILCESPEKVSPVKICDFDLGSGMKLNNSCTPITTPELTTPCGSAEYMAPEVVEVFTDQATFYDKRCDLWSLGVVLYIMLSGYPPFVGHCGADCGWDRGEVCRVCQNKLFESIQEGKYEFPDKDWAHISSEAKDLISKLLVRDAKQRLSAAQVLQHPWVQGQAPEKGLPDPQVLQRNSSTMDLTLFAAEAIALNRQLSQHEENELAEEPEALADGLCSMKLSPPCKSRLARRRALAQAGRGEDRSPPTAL

## CC(=O)c1ccc(Nc2ncnc3[nH]c4c(c23)CC(C(=O)NCCCS(C)(=O)=O)CC4)cc1 (racemic) [Example 53, (RS)-4-[(4-Acetylphenyl)amino]-N-[3-(methylsulfonyl)propyl]-6,7,8,9-tetrahydro-5H-pyrimido[4,5-b]indole-6-carboxamide]
  pIC50: 6.47

## CC(C)NC(=O)C1CCc2[nH]c3ncnc(Nc4ccc(F)cc4OC(C)C)c3c2C1 (racemic) [Example 223, (RS)-4-{[4-Fluoro-2-(propan-2-yloxy)phenyl]amino}-N-(propan-2-yl)-6,7,8,9-tetrahydro-5H-pyrimido[4,5-b]indole-6-carboxamide]
  pIC50: 7.28

## COc1ccc(F)cc1Nc1ncnc2[nH]c3c(c12)CC(C(=O)NC1CC1)CC3 (racemic) [Example 197, (RS)—N-Cyclopropyl-4-[(5-fluoro-2-methoxyphenyl)amino]-6,7,8,9-tetrahydro-5H-pyrimido[4,5-b]indole-6-carboxamide]
  pIC50: 6.73

## COc1cc2[nH]ncc2cc1Nc1ncnc2[nH]c3c(c12)CC(C(=O)NCCCS(C)(=O)=O)CC3 (racemic) [Example 163, (RS)-4-[(6-Methoxy-1H-indazol-5-yl)amino]-N-[3-(methylsulfonyl)propyl]-6,7,8,9-tetrahydro-5H-pyrimido[4,5-b]indole-6-carboxamide]
  pIC50: 8.40

## O=C(O)C1CCc2[nH]c3ncnc(Nc4cc5[nH]c(=O)[nH]c5cc4Cl)c3c2C1 (racemic) [Example 237, (RS)-4-[(6-Chloro-2-oxo-2,3-dihydro-1H-benzimidazol-5-yl)amino]-6,7,8,9-tetrahydro-5H-pyrimido[4,5-b]indole-6-carboxylic acid]
  pIC50: 4.91

## CNC(=O)C1CCc2[nH]c3ncnc(N4CCc5ccccc54)c3c2C1 (racemic) [Example 212, (RS)-4-(2,3-Dihydro-1H-indol-1-yl)-N-methyl-6,7,8,9-tetrahydro-5H-pyrimido[4,5-b]indole-6-carboxamide]
  pIC50: 6.04

## CCNC(=O)C1CCc2[nH]c3ncnc(Nc4cc(F)ccc4OC)c3c2C1 (racemic) [Example 194, (RS)—N-Ethyl-4-[(5-fluoro-2-methoxyphenyl)amino]-6,7,8,9-tetrahydro-5H-pyrimido[4,5-b]indole-6-carboxamide]
  pIC50: 6.80

## CNC(=O)C1CCc2[nH]c3ncnc(Nc4cc5cn[nH]c5cc4OC)c3c2C1 (racemic) [Example 217, (RS)-4-[(6-Methoxy-1H-indazol-5-yl)amino]-N-methyl-6,7,8,9-tetrahydro-5H-pyrimido[4,5-b]indole-6-carboxamide]
  pIC50: 8.00

## COc1ccc(C(F)(F)F)cc1Nc1ncnc2[nH]c3c(c12)CC(C(=O)N1CCN(C)CC1)CC3 (racemic) [Example 215, (RS)-(4-{[2-Methoxy-5-(trifluoromethyl)phenyl]amino}-6,7,8,9-tetrahydro-5H-pyrimido[4,5-b]indol-6-yl)(4-methylpiperazin-1-yl)methanone]
  pIC50: 7.03

## [O-][S+]1CCc2[nH]c3ncnc(Nc4ccc5[nH]ncc5c4)c3c2C1 (racemic) [Example 85, (RS)—N-(1H-Indazol-5-yl)-5,7,8,9-tetrahydrothiopyrano[3′,4′:4,5]pyrrolo[2,3-d]pyrimidin-4-amine 6-oxide]
  pIC50: 6.72

## COc1cc2[nH]ncc2cc1Nc1ncnc2[nH]c3c(c12)CC(F)(F)CC3 [Example 141]
  pIC50: 8.22

## COc1cc2[nH]ncc2cc1Nc1ncnc2[nH]c3c(c12)CC(C(=O)NCc1ccccc1)CC3 (racemic) [Example 219, (RS)—N-Benzyl-4-[(6-methoxy-1H-indazol-5-yl)amino]-6,7,8,9-tetrahydro-5H-pyrimido[4,5-b]indole-6-carboxamide]
  pIC50: 9.00

## CCCOc1ccc(F)cc1Nc1ncnc2[nH]c3c(c12)CC(C(=O)NCCCS(C)(=O)=O)CC3 (racemic) [Example 160, (RS)-4-[(5-Fluoro-2-propoxyphenyl)amino]-N-[3-(methylsulfonyl)propyl]-6,7,8,9-tetrahydro-5H-pyrimido[4,5-b]indole-6-carboxamide]
  pIC50: 7.43

## Cc1ccc(Nc2ncnc3[nH]c4c(c23)CC(C(=O)NCCCS(C)(=O)=O)CC4)c(O)c1 (racemic) [Example 54, (RS)-4-[(2-Hydroxy-4-methylphenyl)amino]-N-[3-(methylsulfonyl)propyl]-6,7,8,9-tetrahydro-5H-pyrimido[4,5-b]indole-6-carboxamide]
  pIC50: 5.51

## COc1ccc(Cl)cc1Nc1ncnc2[nH]c3c(c12)CC(F)(F)CC3 [Example 144]
  pIC50: ≤ 4.70

## CC(C)Oc1cc(F)ccc1Nc1ncnc2[nH]c3c(c12)CS(=O)(=O)CC3 [Example 84, N-(4-Fluoro-2-isopropoxyphenyl)-5,7,8,9-tetrahydrothiopyrano[3′,4′:4,5]pyrrolo[2,3-d]pyrimidin-4-amine 6,6-dioxide]
  pIC50: 7.09

## CN(C)C(=O)C1CCc2[nH]c3ncnc(Nc4ccccc4OC4CCCC4)c3c2C1 (racemic) [Example 188, (RS)-4-{[2-(Cyclopentyloxy)phenyl]amino}-N,N-dimethyl-6,7,8,9-tetrahydro-5H-pyrimido[4,5-b]indole-6-carboxamide]
  pIC50: 6.15

## CS(=O)(=O)CCCNC(=O)C1CCc2[nH]c3ncnc(N4CCc5ccccc54)c3c2C1 (racemic) [Example 168, (RS)-4-(2,3-Dihydro-1H-indol-1-yl)-N-[3-(methylsulfonyl)propyl]-6,7,8,9-tetrahydro-5H-pyrimido[4,5-b]indole-6-carboxamide]
  pIC50: 6.10

## CC(C)Oc1cc(F)ccc1Nc1ncnc2[nH]c3c(c12)CSCC3 [Example 11, N-(4-Fluoro-2-isopropoxyphenyl)-5,7,8,9-tetrahydrothiopyrano[3′,4′:4,5]pyrrolo[2,3-d]pyrimidin-4-amine]
  pIC50: 7.38

## CS(=O)(=O)CCCNC(=O)C1CCc2[nH]c3ncnc(Nc4ccccc4OC4CCOCC4)c3c2C1 (racemic) [Example 79, (RS)—N-[3-(Methylsulfonyl)propyl]-4-{[2-(tetrahydro-2H-pyran-4-yloxy)phenyl]amino}-6,7,8,9-tetrahydro-5H-pyrimido[4,5-b]indole-6-carboxamide]
  pIC50: 7.24

## Nc1ccc2c(c1)CCN2c1ncnc2[nH]c3c(c12)CCCC3 [Example 113]
  pIC50: 6.17

## CCOC(=O)C1CCc2[nH]c3ncnc(Nc4ccc(Cl)c(Cl)c4)c3c2C1 (racemic) [Example 178, (RS)-Ethyl 4-[(3,4-dichlorophenyl)amino]-6,7,8,9-tetrahydro-5H-pyrimido[4,5-b]indole-6-carboxylate]
  pIC50: 6.67

## COc1ccc(Br)cc1Nc1ncnc2[nH]c3c(c12)CCCC3 [Example 128]
  pIC50: 6.50

## COc1ccc(Cl)cc1Sc1ncnc2[nH]c3c(c12)CC(C(=O)NCCCS(C)(=O)=O)CC3 (racemic) [Example 148, (RS)-4-[(5-Chloro-2-methoxyphenyl)sulfanyl]-N-[3-(methylsulfonyl)propyl]-6,7,8,9-tetrahydro-5H-pyrimido[4,5-b]indole-6-carboxamide]
  pIC50: 5.76

## CCOC(=O)CNC(=O)C1CCc2[nH]c3ncnc(Nc4ccc(F)cc4OCCO)c3c2C1 (racemic) [Example 228, (RS)-Ethyl N-[(4-{[4-fluoro-2-(2-hydroxyethoxy)phenyl]amino}-6,7,8,9-tetrahydro-5H-pyrimido[4,5-b]indol-6-yl)carbonyl]glycinate]
  pIC50: 7.29

## COc1cc(NS(C)(=O)=O)ccc1Nc1ncnc2[nH]c3c(c12)CCCC3 [Example 129]
  pIC50: 5.39

## CS(=O)(=O)CCCNC(=O)C1CCc2[nH]c3ncnc(Nc4ccccc4OC4CCOC4)c3c2C1 (racemic) [Example 167, (RS)—N-[3-(Methylsulfonyl)propyl]-4-{[2-(tetrahydrofuran-3-yloxy)phenyl]amino}-6,7,8,9-tetrahydro-5H-pyrimido[4,5-b]indole-6-carboxamide]
  pIC50: 7.15

## O=C(NCc1ccccc1)C1CCc2[nH]c3ncnc(N4CCc5ccccc54)c3c2C1 (racemic) [Example 209, (RS)—N-Benzyl-4-(2,3-dihydro-1H-indol-1-yl)-6,7,8,9-tetrahydro-5H-pyrimido[4,5-b]indole-6-carboxamide]
  pIC50: 6.35
